Data on 21 compounds can be found in patent US20060084135A1, “Compositions for manipulating the lifespan and stress response of cells and organisms” (priority 2003, published 2006).

Counter-ions that a name gives are not always drawn.

The target in this experiment is T1, recombinant human SIRT1 (Homo sapiens, UniProt Q96EB6).
T1 sequence (Q96EB6 1-747): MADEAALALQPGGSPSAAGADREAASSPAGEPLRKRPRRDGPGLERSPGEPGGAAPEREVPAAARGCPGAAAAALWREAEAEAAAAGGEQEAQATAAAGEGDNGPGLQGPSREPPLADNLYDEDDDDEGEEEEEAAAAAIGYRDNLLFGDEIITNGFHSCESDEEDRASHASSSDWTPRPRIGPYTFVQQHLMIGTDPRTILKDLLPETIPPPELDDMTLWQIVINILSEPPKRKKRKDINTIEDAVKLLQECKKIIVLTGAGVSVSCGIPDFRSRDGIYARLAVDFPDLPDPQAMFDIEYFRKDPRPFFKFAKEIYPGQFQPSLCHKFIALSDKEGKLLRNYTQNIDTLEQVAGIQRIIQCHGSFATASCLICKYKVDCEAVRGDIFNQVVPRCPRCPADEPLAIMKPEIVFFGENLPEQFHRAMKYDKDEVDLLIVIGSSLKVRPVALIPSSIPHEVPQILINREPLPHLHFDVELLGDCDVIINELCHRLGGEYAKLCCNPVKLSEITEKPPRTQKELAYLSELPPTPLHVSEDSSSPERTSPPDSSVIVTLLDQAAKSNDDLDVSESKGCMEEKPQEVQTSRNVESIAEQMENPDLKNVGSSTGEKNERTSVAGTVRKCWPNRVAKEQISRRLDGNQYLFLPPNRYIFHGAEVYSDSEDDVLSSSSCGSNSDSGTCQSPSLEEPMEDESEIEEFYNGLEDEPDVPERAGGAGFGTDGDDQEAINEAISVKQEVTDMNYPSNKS
In words: SIRT1 fluorescent deacetylation assay (p53-382 acetylated peptide substrate). The format is biochemical. The following applies: for Ratio to Control Rate Mean ± SE: 25 μM NAD+, 25 μM p53-382 acetylated peptide.

Where [1] appears, read: Supplementary Table 6, free radical protective compounds, 100 μM.
[2] abbreviates: Table 11, resveratrol analogs, 100 μM.
The mark [3] stands for this setting: Table 12, resveratrol analogs, 100 μM.
The mark [4] stands for this setting: Table 9, resveratrol analogs, 100 μM.
Setting [5] is: Table 10, resveratrol analogs, 100 μM.
Setting [6] is: Supplementary Table 1, stilbenes and chalcones, 100 μM.
The mark [7] stands for this setting: Supplementary Table 4, isoflavones, flavanones, anthocyanidins, 100 μM.

For `Nc1c(Br)cc(Br)cc1CN[C@H]1CC[C@H](O)CC1` [Ambroxol, trans-4-(2-Amino-3,5-dibromobenzylamino)cyclohexane.HCl, reference compound], the “Ratio to Control Rate Mean ± SE” value under setting [1] was determined as 1.075 ± 0.0026.

In the case of `O=c1cc(-c2ccc(O)cc2)oc2cc(O)cc(O)c12` [Apigenin, 5,7,4′-Trihydroxyflavone], the “Ratio to Control Rate Mean ± SE” value (Supplementary Table 2, flavones part I, 100 μM) stood at 2.77 ± 0.40.

In the case of `Oc1cc(O)cc(/C=C/c2ccc3ccccc3c2)c1` [BML-218, (E)-1-(3,5-Dihydroxyphenyl)-2-(2-napthyl) ethene], the “Ratio to Control Rate Mean ± SE” value under setting [2] was found to be 3.05 ± 0.37.

With `O=C(Nc1ccccc1)c1cc(O)cc(O)c1` [BML-219, N-phenyl-(3,5-dihydroxy)benzamide], the “Ratio to Control Rate Mean ± SE” value (Table 13, resveratrol analogs, 100 μM) is listed as 0.902 ± 0.014.

With `CC(=O)Nc1ccc(/C=C/c2cc(O)cc(O)c2)cc1` [BML-222, 3,5-Dihydroxy-4′-acetamide-trans-stilbene], the “Ratio to Control Rate Mean ± SE” value under setting [3] amounted to 1.88 ± 0.11.

As to `Oc1cc(O)cc(/C=C/C2CCCCC2)c1` [BML-224, (E)-1-(3,5-Dihydroxyphenyl)-2-(cyclohexyl) ethene], the “Ratio to Control Rate Mean ± SE” value under setting [3] was 1.297 ± 0.042.

On to `CCc1ccc(/C=C/c2cc(O)cc(O)c2)cc1` [BML-225, 3,5-Dihydroxy-4′-ethyl-trans-stilbene], for which the “Ratio to Control Rate Mean ± SE” value under setting [4] stood at 9.373 ± 0.014.

With `COCOc1cc(/C=C/c2ccc(SC)cc2)cc(OCOC)c1` [BML-226, 3,5-Dimethoxymethoxy-4′-thiomethyl-trans-stilbene], the “Ratio to Control Rate Mean ± SE” value under setting [3] was found to be 2.316 ± 0.087.

Take `CC(=O)Oc1cc(O)cc(/C=C/c2ccc(O)cc2)c1` [BML-227, 3,4′-Dihydroxy-5-acetoxy-trans-stilbene]: the “Ratio to Control Rate Mean ± SE” value under setting [2] came out at 3.340 ± 0.093.

Consider `Cc1ccc(/C=C/c2cc(O)cc(O)c2)cc1` [BML-228, 3,5-Dihydroxy-4′-methyl-trans-stilbene], for which the “Ratio to Control Rate Mean ± SE” value under setting [4] is 7.72 ± 0.12.

Take `O=[N+]([O-])c1ccc(/C=C/c2cc(O)cc(O)c2)cc1` [BML-229, 3,5-Dihydroxy-4′-nitro-trans-stilbene]: under setting [5], the “Ratio to Control Rate Mean ± SE” value came out at 6.78 ± 0.22.

As to `CSc1ccc(/C=C/c2cc(O)cc(O)c2)cc1` [BML-230, 3,5-Dihydroxy-4′-thiomethyl-trans-stilbene], the “Ratio to Control Rate Mean ± SE” value under setting [5] was 6.84 ± 1.26.

For the compound `CC(C)c1ccc(/C=C/c2cc(O)cc(O)c2)cc1` [BML-231, 3,5-Dihydroxy-4′-isopropyl-trans-stilbene], the “Ratio to Control Rate Mean ± SE” value under setting [5] worked out at 6.01 ± 0.15.

As to `[N-]=[N+]=Nc1ccc(/C=C/c2cc(O)cc(O)c2)cc1` [BML-232, 3,5-Dihydroxy-4′-azido-trans-stilbene], the “Ratio to Control Rate Mean ± SE” value under setting [5] came out at 7.24 ± 0.12. The “SIRT1 stimulating activity (in words)” value (polyphenol screen) was “very similar SIRT1 activating properties to resveratrol”.

For the compound `O=C(/C=C/c1ccc(O)c(O)c1)Oc1ccccc1` [Caffeic Acid Phenyl Ester], the “Ratio to Control Rate Mean ± SE” value under setting [1] stood at 1.80 ± 0.16.

For `O=C(/C=C/c1ccccc1)c1ccccc1` [Chalcone], under setting [6], the “Ratio to Control Rate Mean ± SE” value stood at 1.34 ± 0.17.

Take `O=c1oc2cc(O)ccc2c2oc3cc(O)ccc3c12` [Coumestrol]: the “Ratio to Control Rate Mean ± SE” value (Supplementary Table 8, compound at 10 μM) is given as 2.30 ± 0.31.

In the case of `Oc1cc(O)c2cc(O)c(-c3ccc(O)c(O)c3)[o+]c2c1.[Cl-]` [Cyanidin chloride, 3,5,7,3′,4′-Pentahydroxyflavylium chloride], the “Ratio to Control Rate Mean ± SE” value under setting [7] is recorded as 0.451 ± 0.015.

With `O=c1c(-c2ccc(O)cc2)coc2cc(O)ccc12` [Daidzein, 7,4′-Dihydroxyisoflavone], the “Ratio to Control Rate Mean ± SE” value under setting [7] is 2.28 ± 0.74.

As to `Oc1cc(O)c2cc(O)c(-c3cc(O)c(O)c(O)c3)[o+]c2c1.[Cl-]` [Delphinidin chloride, 3,5,7,3′,4′,5′-Hexahydroxyflavylium chloride], the “Ratio to Control Rate Mean ± SE” value under setting [7] came to 0.4473 ± 0.0071.

For `COc1ccc(/C=C/c2cc(O)cc(O[C@@H]3O[C@H](CO)[C@@H](O)[C@H](O)[C@H]3O)c2)cc1` [Deoxyrhapontin, 3,5-Dihydroxy-4′-methoxystilbene 3-O-β-D-glucoside], the “Ratio to Control Rate Mean ± SE” value under setting [6] came to 1.94 ± 0.21.
